Laboratory results: publication PMC12621019, “Restructuring Antiviral Quinazolinone Frameworks to Derive and Optimize Inhibitors of Chikungunya Virus” (ACS Medicinal Chemistry Letters, 2025)

How the values were obtained:
[1] = system: CHIKV (strain 181/25mKate); experiment: microbe, parasite or virus in culture; type: cell-based; details: Chikungunya virus, NHDF, 72 h, read-out: titer redn, log
NHDF cells = experiment: Cytotoxicity assay (CellTiter Glo) in NHDF cells; details: NHDF cells, 72 h; maximum 40 μM; listed as racemic 1h
[2] = Cytotoxicity assay (CellTiter Glo) in NHDF cells; details: human, CC50, NHDF cells, maximum 40 μM

| SMILES | log reduction at 10 µM [1] | CC50 (NHDF cells) | CC50 at 72 h [2] [µM] |
| --- | --- | --- | --- |
| COc1c(F)cc(-n2c(C3CCCCN3)nc3cc(N4CCN(C(C)C)CC4)c(Cl)cc3c2=O)cc1F (racemic) [rac-1h] | 1.3 | without observed cytotoxicity | > 40 |
| COc1c(F)cc(-n2c(-c3ccccn3)nc3cc(N4CCN(C(C)C)CC4)c(Cl)cc3c2=O)cc1F [1ac] | 0 | – | > 40 |
| COc1c(F)cc(-n2c(-c3cccnc3)nc3cc(N4CCN(C(C)C)CC4)c(Cl)cc3c2=O)cc1F [1ad] | 0 | – | > 40 |
| COc1c(F)cc(-n2c(C3CCNCC3)nc3cc(N4CCN(C(C)C)CC4)c(Cl)cc3c2=O)cc1F [1i] | 0.95 | – | 29.1 |
| COc1c(F)cc(-n2c([C@H]3CCCN3)nc3cc(N4CCN(C)CC4)c(F)cc3c2=O)cc1F [(R)-1a] | 0.1 | – | > 40 |
| COc1c(F)cc(-n2c([C@@H]3CCCN(c4ccccc4)C3)nc3cc(N4CCN(C(C)C)CC4)c(Cl)cc3c2=O)cc1F [(R)-1aa] | 0 | – | > 40 |
| COc1c(F)cc(-n2c([C@@H]3CCCNC3)nc3ccc(Cl)cc3c2=O)cc1F [(R)-1ab] | 0 | – | > 40 |
| COc1c(F)cc(-n2c([C@H]3CCCN3)nc3cc(N4CCN(C(C)C)CC4)c(F)cc3c2=O)cc1F [(R)-1b] | 1.3 | – | > 40 |
| COc1c(F)cc(-n2c([C@H]3CCCN3)nc3cc(N4CCN(C)CC4)c(Cl)cc3c2=O)cc1F [(R)-1c] | 0.5 | – | > 40 |
| COc1c(F)cc(-n2c([C@H]3CCCN3)nc3cc(N4CCN(C(C)C)CC4)c(Cl)cc3c2=O)cc1F [(R)-1d] | 2.3 | – | 19 |
| COc1c(F)cc(-n2c([C@H]3CCCN3)nc3cc(N4CCNCC4)c(Cl)cc3c2=O)cc1F [(R)-1e] | 2.1 | – | 24.9 |
| COc1c(F)cc(-n2c([C@H]3CCN3)nc3cc(N4CCN(C(C)C)CC4)c(Cl)cc3c2=O)cc1F [(R)-1f] | 0.1 | – | > 40 |
| COc1c(F)cc(-n2c([C@@H]3CCCNC3)nc3cc(N4CCN(C(C)C)CC4)c(Cl)cc3c2=O)cc1F [(R)-1g] | 2.3 | – | 16.2 |
| COc1c(F)cc(-n2c([C@@H]3CCCNC3)nc3cc(N4CCN(C(C)(C)C)CC4)c(Cl)cc3c2=O)cc1F [(R)-1j] | 1.1 | – | 17.1 |
| COc1c(F)cc(-n2c([C@@H]3CCCNC3)nc3cc(N4CCN(c5ccccc5)CC4)c(Cl)cc3c2=O)cc1F [(R)-1k] | > 4 | – | 11.3 |
| COc1c(F)cc(-n2c([C@@H]3CCCNC3)nc3cc(N4CCN(C5CCN(C)CC5)CC4)c(Cl)cc3c2=O)cc1F [(R)-1l] | 2.8 | – | 11.6 |
| COc1c(F)cc(-n2c([C@@H]3CCCNC3)nc3cc(N4CCN(C)CC4)c(Cl)cc3c2=O)cc1F [(R)-1m] | 2.2 | – | 23.3 |
| COc1c(F)cc(-n2c([C@@H]3CCCNC3)nc3cc(N4CCNCC4)c(Cl)cc3c2=O)cc1F [(R)-1n] | 0.7 | – | 16.5 |
| COc1c(F)cc(-n2c([C@@H]3CCCNC3)nc3cc(N4CCC(N5CCOCC5)CC4)c(Cl)cc3c2=O)cc1F [(R)-1o] | 1.1 | – | 20.6 |
| COc1c(F)cc(-n2c([C@@H]3CCCNC3)nc3cc(N4CCC(N5CCN(C)CC5)CC4)c(Cl)cc3c2=O)cc1F [(R)-1p] | 2.5 | – | 13.1 |
| COc1c(F)cc(-n2c([C@@H]3CCCNC3)nc3cc(N(C)CCN(C)C)c(Cl)cc3c2=O)cc1F [(R)-1q] | 0.6 | – | 26.6 |
| CC(C)N1CCN(c2cc3nc([C@@H]4CCCNC4)n(C)c(=O)c3cc2Cl)CC1 [(R)-1r] | 0.5 | – | > 40 |
| CC(C)N1CCN(c2cc3nc([C@@H]4CCCNC4)n(-c4ccccc4)c(=O)c3cc2Cl)CC1 [(R)-1s] | 0.9 | – | > 40 |
| COc1ccc(-n2c([C@@H]3CCCNC3)nc3cc(N4CCN(C(C)C)CC4)c(Cl)cc3c2=O)cc1 [(R)-1t] | 1.4 | – | 29.3 |
| CC(C)N1CCN(c2cc3nc([C@@H]4CCCNC4)n(-c4ccc(F)cc4)c(=O)c3cc2Cl)CC1 [(R)-1u] | 2.1 | – | 23.8 |
| CC(C)N1CCN(c2cc3nc([C@@H]4CCCNC4)n(-c4ccc(Cl)cc4)c(=O)c3cc2Cl)CC1 [(R)-1v] | 3.4 | – | 14.2 |
| CC(C)N1CCN(c2cc3nc([C@@H]4CCCNC4)n(-c4cccc(Cl)c4)c(=O)c3cc2Cl)CC1 [(R)-1w] | 2.7 | – | 18 |

| SMILES | log reduction at 10 µM [1] | CC50 (NHDF cells) | CC50 at 72 h [2] [µM] |
| --- | --- | --- | --- |
| CC(C)N1CCN(c2cc3nc([C@H]4CCCCN4)n(-c4ccc(Cl)cc4)c(=O)c3cc2Cl)CC1 [(R)-1x] | 5.2 | – | 12 |
| COc1c(F)cc(-n2c([C@@H]3CCCN(C)C3)nc3cc(N4CCN(C(C)C)CC4)c(Cl)cc3c2=O)cc1F [(R)-1y] | 1.3 | – | 23.6 |
| COc1c(F)cc(-n2c([C@H]3CCCCN3C)nc3cc(N4CCN(C(C)C)CC4)c(Cl)cc3c2=O)cc1F [(R)-1z] | 0.4 | – | > 40 |
| COc1c(F)cc(-n2c([C@@H]3CCCN3)nc3cc(N4CCN(C)CC4)c(F)cc3c2=O)cc1F [(S)-1a] | 0.3 | – | > 40 |
| COc1c(F)cc(-n2c([C@@H]3CCCN3)nc3cc(N4CCN(C(C)C)CC4)c(F)cc3c2=O)cc1F [(S)-1b] | 0.64 | – | > 40 |
| COc1c(F)cc(-n2c([C@@H]3CCCN3)nc3cc(N4CCN(C)CC4)c(Cl)cc3c2=O)cc1F [(S)-1c] | 1 | – | > 40 |
| COc1c(F)cc(-n2c([C@@H]3CCCN3)nc3cc(N4CCN(C(C)C)CC4)c(Cl)cc3c2=O)cc1F [(S)-1d] | 1.3 | – | > 40 |
| COc1c(F)cc(-n2c([C@@H]3CCCN3)nc3cc(N4CCNCC4)c(Cl)cc3c2=O)cc1F [(S)-1e] | 1.6 | – | 22.8 |
| COc1c(F)cc(-n2c([C@@H]3CCN3)nc3cc(N4CCN(C(C)C)CC4)c(Cl)cc3c2=O)cc1F [(S)-1f] | 0 | – | > 40 |
| COc1c(F)cc(-n2c([C@H]3CCCNC3)nc3cc(N4CCN(C(C)C)CC4)c(Cl)cc3c2=O)cc1F [(S)-1g] | 2.9 | – | 11.7 |
| COc1c(F)cc(-n2c([C@@H]3CCCCN3)nc3cc(N4CCN(C(C)C)CC4)c(Cl)cc3c2=O)cc1F [(S)-1h] | 1.7 | – | 34.8 |
| COc1c(F)cc(-n2c([C@H]3CCCNC3)nc3cc(N4CCN(C(C)(C)C)CC4)c(Cl)cc3c2=O)cc1F [(S)-1j] | ~3 | – | 8.9 |
| COc1c(F)cc(-n2c([C@H]3CCCNC3)nc3cc(N4CCN(C5CCN(C)CC5)CC4)c(Cl)cc3c2=O)cc1F [(S)-1l] | 1.2 | – | 11.4 |
| COc1c(F)cc(-n2c([C@H]3CCCNC3)nc3cc(N4CCN(C)CC4)c(Cl)cc3c2=O)cc1F [(S)-1m] | 1 | – | 24.8 |
| COc1c(F)cc(-n2c([C@H]3CCCNC3)nc3cc(N4CCNCC4)c(Cl)cc3c2=O)cc1F [(S)-1n] | 0.8 | – | 13.7 |
| COc1c(F)cc(-n2c([C@H]3CCCNC3)nc3cc(N4CCC(N5CCOCC5)CC4)c(Cl)cc3c2=O)cc1F [(S)-1o] | 0.3 | – | 30.1 |
| COc1c(F)cc(-n2c([C@H]3CCCNC3)nc3cc(N4CCC(N5CCN(C)CC5)CC4)c(Cl)cc3c2=O)cc1F [(S)-1p] | 1.8 | – | 12.1 |
| COc1c(F)cc(-n2c([C@H]3CCCNC3)nc3cc(N(C)CCN(C)C)c(Cl)cc3c2=O)cc1F [(S)-1q] | 1.2 | – | 16.3 |
| CC(C)N1CCN(c2cc3nc([C@H]4CCCNC4)n(C)c(=O)c3cc2Cl)CC1 [(S)-1r] | 0.7 | – | > 40 |
| CC(C)N1CCN(c2cc3nc([C@H]4CCCNC4)n(-c4ccccc4)c(=O)c3cc2Cl)CC1 [(S)-1s] | 1 | – | > 40 |
| CC(C)N1CCN(c2cc3nc([C@H]4CCCNC4)n(-c4ccc(Cl)cc4)c(=O)c3cc2Cl)CC1 [(S)-1v] | 2 | – | 17.2 |
| CC(C)N1CCN(c2cc3nc([C@H]4CCCNC4)n(-c4cccc(Cl)c4)c(=O)c3cc2Cl)CC1 [(S)-1w] | 2.6 | – | 14.8 |
| CC(C)N1CCN(c2cc3nc([C@@H]4CCCCN4)n(-c4ccc(Cl)cc4)c(=O)c3cc2Cl)CC1 [(S)-1x] | 3.4 | – | 16.5 |
| COc1c(F)cc(-n2c([C@H]3CCCN(C)C3)nc3cc(N4CCN(C(C)C)CC4)c(Cl)cc3c2=O)cc1F [(S)-1y] | 1.1 | – | 29.1 |
| COc1c(F)cc(-n2c([C@@H]3CCCCN3C)nc3cc(N4CCN(C(C)C)CC4)c(Cl)cc3c2=O)cc1F [(S)-1z] | 0.5 | – | 36.5 |
| COc1ccc(-n2c([C@H]3CCCN3)nc3c(C)cc([N+](=O)[O-])cc3c2=O)cc1 [BDGR-49, reference compound] | 0 | – | – |
